Laboratory results taken from patent publication US9820972B2, “Antiviral compounds highly effective as HCV-NS5A inhibitor” (priority 2013, dated 2017).
Read-outs that look alike come from different tables or passages of the source.

Assays:
GT-1a of NS5A Replicon = experiment: HCV double reporter gene (Renilla luciferase) replicon assay, GT-1a; assay type: cell-based, Hepatitis C virus (HCV); conditions: Hepatitis C virus
Summary of the method: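 Replication measured in a double-reporter HCV replicon cell system by Renilla luciferase signal. EC50 from 8-point 2-fold dilutions, triplicate wells, three repeats, with 1 or 2 control drugs.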

HCV NS5A Replicon GT-1b = experiment: HCV double reporter gene replicon assay, GT-1b; assay type: cell-based; conditions: Hepatitis C virus, genotype 1a / genotype 1b / genotype 6a; GT-1b replicon
Procedure: (§1) Antiviral Assay for Inhibition Activity (EC50):
(§2) The study is completed by a new constructed double reporter genes replicon assay system, the capacity of viral replicon in infected cell is determined by detecting the reporter gene Renilla luciferase. The relationship of reporter genes, HCV RNA replicon and viral proteins is well linear. 8 gradient concentrations for 2-fold dilution, 3 wells, 3 times repetition and 1 or 2 control drugs are set to finally determine EC50 of compound.
(§3) THF was distilled from sodium metal and benzophenone. DCM, pentane and hexane were distilled form calcium hydride. Special raw material and intermediate in the invention were ordered by contract synthesis from Zannan SciTech Co., Let in China, others reagents were purchased from Shanghai reagent company, Aldrich, Acros etc. As intermediates or products during the synthesis is not required for the reaction and other tests the next step, the synthesis is repeated until a sufficient number of times. The invention of the prepared compounds of […] (HCV NS5A) inhibitory activity test was performed by CRO service units such as WuXi AppTec etc.

HCV NS5A Replicon GT-2a = experiment: HCV double reporter gene replicon assay, GT-2a; assay type: cell-based; conditions: Hepatitis C virus, genotype 1a / genotype 2a / genotype 6a; GT-2a replicon
Procedure: as §1, §2, §3

HCV NS5A Replicon GT-6a = experiment: HCV double reporter gene replicon assay, GT-6a; assay type: cell-based; conditions: Hepatitis C virus, genotype 1a / genotype 6a; GT-6a replicon
Procedure: as §1, §2, §3

[1] = Acute Toxicity Study (MTD); assay type: in vivo, rats and mice; conditions: rats or mice, fed once, oral dose 10000 mg/kg, observed for a week
Text: Acute Toxicity Study (MTD):
Materials and Methods for MTD Study are as follows:
Animals were fed freely for adaptation more than 1 week. Healthy rats, body weight between 170-190 g, were divided randomly into 3 groups, 5 male and 5 female in each group. Healthy mice, body weight between 18-22 g, were divided randomly into 22 groups, 5 male and 5 female in each group.
In rats, the compound weighing 21.00 g, serial number 1-3 respectively, adding 0.7% sodium carboxymethyl cellulose solution 30.00 g, high-speed homogenizer machine 15000 RPM, 10 min mixing, the rats were fed once, oral dose 10000 mg/kg. In mice, the compound weighing 2.00 g, serial number 4-25 respectively, adding 0.7% sodium carboxymethyl cellulose solution 8.00 g, high-speed homogenizer machine 10000 RPM, 10 min mixing, the mice were fed once, oral dose 10000 mg/kg.
Animals were observed every hour after administration in the first day, and behavior observation daily continuous for a week. Dead animals were necropsied, gross pathology of the organs were observed and recorded.
Toxicity was evaluated by animal mortality, signs of clinical behavior and others.

HCV NS5A Replicon GT-3a = experiment: HCV double reporter gene replicon assay, GT-3a; assay type: cell-based; conditions: Hepatitis C virus, genotype 1a / genotype 3a / genotype 6a; GT-3a replicon
Procedure: as §1, §2, §3

HCV NS5A Replicon GT-4a = experiment: HCV double reporter gene replicon assay, GT-4a; assay type: cell-based; conditions: Hepatitis C virus, genotype 1a / genotype 4a / genotype 6a; GT-4a replicon
Procedure: as §1, §2, §3

HCV NS5A Replicon GT-5a = experiment: HCV double reporter gene replicon assay, GT-5a; assay type: cell-based; conditions: Hepatitis C virus, genotype 1a / genotype 5a / genotype 6a; GT-5a replicon
Procedure: as §1, §2, §3

[2] = genotype 1a / genotype 6a, read-out: EC50 for Replicon (pM) of GT-1a to GT-6a: 1a
[3] = GT1A, GT-1a replicon, class symbols, read-out: EC50 For GT-1a of NS5A Replicon

Row | Compound | EC50 (GT-1a of NS5A Replicon; [2]) | EC50 (HCV NS5A Replicon GT-1b) | EC50 (HCV NS5A Replicon GT-2a) | EC50 (HCV NS5A Replicon GT-6a) | MTD results: test-article related death and adverse events [1] | EC50 (GT-1a of NS5A Replicon; [3]) | EC50 (HCV NS5A Replicon GT-3a) | EC50 (HCV NS5A Replicon GT-4a) | EC50 (HCV NS5A Replicon GT-5a)
1 | COC(=O)N[C@H](C(=O)N1CC=C[C@H]1c1ncc(-c2ccc(-c3ccc(-c4c[nH]c([C@@H]5CCCN5C(=O)[C@@H](NC(=O)OC)C(C)C)n4)cc3)cc2)[nH]1)C(C)C [Compound 6ba] | 39 pM | 12 pM | 16 pM | 221 pM | no any test-article related death and no any adverse events observed | – | – | – | –
2 | COC(=O)N[C@H](C(=O)N1CCCC1c1nc(-c2ccc(-c3ccc(-c4c[nH]c(C5C=CCN5C(=O)[C@H](NC(=O)OC)c5ccccc5)n4)cc3)cc2)c[nH]1)C(C)C (stereo partly drawn) [Compound 6bx] | – | – | – | – | no any test-article related death and no any adverse events observed | 1 to 999 pM | – | – | –
3 | COC(=O)N[C@H](C(=O)N1CC=CC1c1nc(-c2ccc(-c3ccc(-c4c[nH]c(C5CCCN5C(=O)[C@H](NC(=O)OC)c5ccccc5)n4)cc3)cc2)c[nH]1)C(C)C (stereo partly drawn) [Compound 6by] | – | – | – | – | no any test-article related death and no any adverse events observed | 1 to 999 pM | – | – | –
4 | COC(=O)N[C@@H](C(=O)N1CC=CC1c1nc(-c2ccc(-c3ccc(-c4c[nH]c(C5CCCN5C(=O)[C@H](NC(=O)OC)c5ccccc5)n4)cc3)cc2)c[nH]1)c1ccccc1 (stereo partly drawn) [Compound 6bz] | – | – | – | – | no any test-article related death and no any adverse events observed | 1 to 999 pM | – | – | –
5 | COC(=O)N[C@H](C(=O)N1CCC[C@H]1c1nc(-c2ccc(-c3ccc(-c4cnc([C@@H]5C=CCN5C(=O)[C@H](NC(=O)OC)c5ccccc5)[nH]4)cc3)cc2)c[nH]1)C(C)C [Compound 6dy] | 11 pM | 14 pM | 6 pM | 24 pM | – | – | – | – | –
6 | COC(=O)N[C@@H](C(=O)N1CC=CC1c1nc(-c2ccc(-c3cc4sc(-c5c[nH]c(C6CCCN6C(=O)[C@H](NC(=O)OC)c6ccccc6)n5)cc4s3)cc2)c[nH]1)c1ccccc1 (stereo partly drawn) [Compound 6fd] | 21 pM | 11 pM | 5 pM | 111 pM | no any test-article related death and no any adverse events observed | 1 to 999 pM | 15 pM | 8 pM | 23 pM
7 | COC(=O)N[C@H](C(=O)N1CC=C[C@H]1c1ncc(-c2ccc(-c3cc4sc(-c5cnc([C@@H]6CCCN6C(=O)[C@@H](NC(=O)OC)C(C)C)[nH]5)cc4s3)cc2)[nH]1)C(C)C [Compound 6fg] | – | – | – | – | no any test-article related death and no any adverse events observed | 1 to 999 pM | – | – | –
8 | COC(=O)N[C@H](C(=O)N1CC=C[C@H]1c1ncc(-c2ccc(-c3cc4sc(-c5cnc([C@@H]6CCCN6C(=O)[C@H](NC(=O)OC)c6ccccc6)[nH]5)cc4s3)cc2)[nH]1)C(C)C [Compound 6fi] | 20 pM | 5 pM | 7 pM | 55 pM | no any test-article related death and no any adverse events observed | – | – | – | –
9 | COC(=O)N[C@H](C(=O)N1CCC[C@H]1c1ncc(-c2ccc(-c3cc4sc(-c5cnc([C@@H]6C=CCN6C(=O)[C@H](NC(=O)OC)c6ccccc6)[nH]5)cc4s3)cc2)[nH]1)C(C)C [Compound 6fm] | 9 pM | 13 pM | 8 pM | 23 pM | no any test-article related death and no any adverse events observed | – | – | – | –
10 | COC(=O)N[C@H](C(=O)N1CC=C[C@H]1c1ncc(-c2cc3sc(-c4ccc(-c5cnc([C@@H]6CCCN6C(=O)[C@H](NC(=O)OC)c6ccccc6)[nH]5)cc4)cc3s2)[nH]1)C(C)C [Compound 6fp] | – | – | – | – | no any test-article related death and no any adverse events observed | 1 to 999 pM | – | – | –
11 | COC(=O)N[C@H](C(=O)N1CCC[C@H]1c1nc(-c2ccc(-c3ccc(-c4c[nH]c([C@@H]5CCCN5C(=O)[C@@H](NC(=O)OC)C(C)C)n4)cc3)cc2)c[nH]1)C(C)C [Ref-1, reference compound] | 52 pM | 21 pM | 29 pM | 118 pM | – | – | – | – | –
